Patent US10765114B2, “4-amino-6-(pyridyl and 2-substitutedphenyl)-picolinates and 6-amino-2-(pyridyl and 2-substitutedphenyl)-pyrimidine-4-carboxylates and their use as herbicides” (Dow AgroSciences LLC, priority 2013, dated 2020)

How the values were obtained:
Assay in all cases: Post-Emergent Test III (Wheat and Barley)
[1] = test system: KCHSC (kochia); assay type: in vivo, Kochia scoparia; settings: for pest or weed control at 35 g/ha / pest or weed control at 70 g/ha / pest or weed control at 140 g/ha: Bassia scoparia, post-emergence, 504 h, postemergence, read-out: Visual Growth Reduction (%) 21 Days After Application, KCHSC; for pest or weed control at 35 g/ha: 35 g ai/ha; for pest or weed control at 70 g/ha: 70 g ai/ha; for pest or weed control at 140 g/ha: 140 g ai/ha; for GR50, KCHSC: effective dose for growth reduction of 50 percent; for GR50, KCHSC / GR80, KCHSC: probit analysis; for GR80, KCHSC: effective dose for growth reduction of 80 percent
Protocol: (§1) Seeds of the desired test plant species were planted in Sun Gro MetroMix® 306 planting mixture, which typically has a pH of 6.0 to 6.8 and an organic matter content of about 30 percent, in plastic pots with a surface area of 103.2 square centimeters (cm^2). When required to ensure good germination and healthy plants, a fungicide treatment and/or other chemical or physical treatment was applied. The plants were grown for 7-36 days in a greenhouse with an approximate 14 h photoperiod which was maintained at about 18° C. during the day and 17° C. during the night. Nutrients and water were added on a regular basis and supplemental lighting was provided with overhead metal halide 1000-Watt lamps as necessary. The plants were employed for testing when they reached the second or third true leaf stage.
(§2) A weighed amount, determined by the highest rate to be tested, of each test compound was placed in a 25 mL glass vial and was dissolved in 4 mL of a 97:3 v/v mixture of acetone and DMSO to obtain concentrated stock solutions. […] The concentrated stock solutions obtained were diluted with 20 mL of an aqueous mixture containing acetone, water, isopropyl alcohol, DMSO, Agri-Dex crop oil concentrate, and X-77 surfactant in a 48:39:10:1.5:1.5:0.02 v/v ratio to obtain spray solutions containing the highest application rates. Additional application rates were obtained by serial dilution of 12 mL of the high rate solution into a solution containing 2 mL of 97:3 v/v mixture of acetone and DMSO and 10 mL of an aqueous mixture containing acetone, water, isopropyl alcohol, DMSO, Agri-Dex crop oil concentrate, and X-77 surfactant in a 48:39:10:1.5:1.5:0.02 v/v ratio to obtain ½×, ¼×, ⅛× and 1/16× rates of the high rate. Compound requirements are based upon a 12 mL application volume at a rate of 187 liters per hectare (L/ha). Formulated compounds were applied to the plant material with an overhead Mandel track sprayer equipped with 8002E nozzles calibrated to deliver 187 L/ha over an application area of 0.503 square meters at a spray height of 18 inches (43 cm) above the average plant canopy height. Control plants were sprayed in the same manner with the solvent blank.
(§3) The treated plants and control plants were placed in a greenhouse as described above and watered by subirrigation to prevent wash-off of the test compounds. After 21 dAYS, the condition of the test plants as compared with that of the untreated plants was determined visually and scored on a scale of 0 to 100 percent where 0 corresponds to no injury and 100 corresponds to complete kill and presented as indicated in Table A.
(§4) By applying the well-accepted probit analysis as described by J. Berkson in Journal of the American Statistical Society, 48, 565 (1953) and by D. Finney in “Probit Analysis” Cambridge University Press (1952), herbicidal injury of a specific compound at various rates can be used to calculate GR10, GR20, GR50, GR80 and GR90 values, which are defined as growth reduction factors that correspond to the effective dose of herbicide required to provide plant growth reduction (GR) of 10 percent, 20 percent, 50 percent, 80 percent and 90 percent, respectively. Probit analysis was applied to data collected from multiple dose rates of individual compounds utilizing the procedures explained in the following examples. The analysis of those dose rates is captured in the following tables.

[2] = test system: ALOMY (blackgrass); assay type: in vivo, Alopecurus myosuroides; settings: for pest or weed control at 35 g/ha / pest or weed control at 70 g/ha / pest or weed control at 140 g/ha: Alopecurus myosuroides, post-emergence, 504 h, postemergence, read-out: Visual Growth Reduction (%) 21 Days After Application, ALOMY; for pest or weed control at 35 g/ha: 35 g ai/ha; for pest or weed control at 70 g/ha: 70 g ai/ha; for pest or weed control at 140 g/ha: 140 g ai/ha; for GR50, ALOMY: effective dose for growth reduction of 50 percent; for GR50, ALOMY / GR80, ALOMY: probit analysis; for GR80, ALOMY: effective dose for growth reduction of 80 percent
Protocol: as §1, §2, §3, §4

[3] = test system: APESV (windgrass); assay type: in vivo, Apera spica-venti; settings: for pest or weed control at 35 g/ha / pest or weed control at 70 g/ha / pest or weed control at 140 g/ha: Apera spica-venti, post-emergence, 504 h, postemergence, read-out: Visual Growth Reduction (%) 21 Days After Application, APESV; for pest or weed control at 35 g/ha: 35 g ai/ha; for pest or weed control at 70 g/ha: 70 g ai/ha; for pest or weed control at 140 g/ha: 140 g ai/ha; for GR50, APESV: effective dose for growth reduction of 50 percent; for GR50, APESV / GR80, APESV: probit analysis; for GR80, APESV: effective dose for growth reduction of 80 percent
Protocol: as §1, §2, §3, §4

[4] = test system: HORSS; assay type: in vivo; settings: for pest or weed control at 35 g/ha / pest or weed control at 70 g/ha / pest or weed control at 140 g/ha: Hordeum vulgare, post-emergence, 504 h, postemergence, read-out: Visual Growth Reduction (%) 21 Days After Application, HORSS; for pest or weed control at 35 g/ha: 35 g ai/ha; for pest or weed control at 70 g/ha: 70 g ai/ha; for pest or weed control at 140 g/ha: 140 g ai/ha; for GR20, HORSS: effective dose for growth reduction of 20 percent, probit analysis
Protocol: as §1, §2, §3, §4

[5] = test system: TRZSS; assay type: in vivo; settings: for pest or weed control at 35 g/ha / pest or weed control at 70 g/ha / pest or weed control at 140 g/ha: Triticum aestivum, post-emergence, 504 h, postemergence, read-out: Visual Growth Reduction (%) 21 Days After Application, TRZSS; for pest or weed control at 35 g/ha: 35 g ai/ha; for pest or weed control at 70 g/ha: 70 g ai/ha; for pest or weed control at 140 g/ha: 140 g ai/ha; for GR20, TRZSS: effective dose for growth reduction of 20 percent, probit analysis
Protocol: as §1, §2, §3, §4

Work on COC(=O)c1nc(-c2ccc(OC(F)F)nc2)c(F)c(N)c1Cl [Compound 71] yielded a pest or weed control at 35 g/ha [1] of 0 to 29%, a pest or weed control at 70 g/ha [1] of 60 to 74% and a pest or weed control at 140 g/ha [1] of 60 to 74%. For the same compound, the “GR50, KCHSC” value [1] was 80 g ai/ha, the “GR80, KCHSC” value [1] was >140 g ai/ha and the pest or weed control at 35 g/ha [2] was 0 to 29%. For the same compound, the pest or weed control at 70 g/ha [2] was 0 to 29%, the pest or weed control at 140 g/ha [2] was 30 to 44% and the “GR50, ALOMY” value [2] was >140 g ai/ha. The “GR80, ALOMY” value [2] was >140 g ai/ha, the pest or weed control at 35 g/ha [3] was 0 to 29% and the pest or weed control at 70 g/ha [3] was 0 to 29%. The pest or weed control at 140 g/ha [3] was 30 to 44%, the “GR50, APESV” value [3] was >140 g ai/ha and the “GR80, APESV” value [3] was >140 g ai/ha. For the same compound, the pest or weed control at 35 g/ha [4] was 30 to 44%, the pest or weed control at 70 g/ha [4] was 60 to 74% and the pest or weed control at 140 g/ha [4] was 75 to 84%. The “GR20, HORSS” value [4] was 26 g ai/ha, the pest or weed control at 35 g/ha [5] was 60 to 74% and the pest or weed control at 70 g/ha [5] was 75 to 84%. The pest or weed control at 140 g/ha [5] was 85 to 94% and the “GR20, TRZSS” value [5] was 16 g ai/ha.
With Nc1c(F)c(-c2ccc(C3CC3)nc2)nc(C(=O)O)c1Cl [Compound 36, 4-amino-5-chloro-6′-cyclopropyl-3-fluoro-[2,3′-bipyridine]-6-carboxylic acid] the pest or weed control at 35 g/ha [1] was 45 to 59%, the pest or weed control at 70 g/ha [1] was 60 to 74% and the “GR50, KCHSC” value [1] was 34 g ai/ha. The “GR80, KCHSC” value [1] was 108 g ai/ha, the pest or weed control at 35 g/ha [2] was 0 to 29% and the pest or weed control at 70 g/ha [2] was 30 to 44%. For the same compound, the “GR50, ALOMY” value [2] was 126 g ai/ha, the “GR80, ALOMY” value [2] was >140 g ai/ha and the pest or weed control at 35 g/ha [3] was 45 to 59%. For the same compound, the pest or weed control at 70 g/ha [3] was 85 to 94%, the “GR50, APESV” value [3] was 24 g ai/ha and the “GR80, APESV” value [3] was 53 g ai/ha. The pest or weed control at 35 g/ha [4] was 60 to 74%, the pest or weed control at 70 g/ha [4] was 75 to 84% and the “GR20, HORSS” value [4] was 1 g ai/ha. For the same compound, the pest or weed control at 35 g/ha [5] was 60 to 74%, the pest or weed control at 70 g/ha [5] was 75 to 84% and the “GR20, TRZSS” value [5] was 1 g ai/ha.
Nc1c(F)c(-c2ccc(OC(F)F)nc2)nc(C(=O)O)c1Cl [Compound 66] showed a pest or weed control at 35 g/ha [1] of 0 to 29%, a pest or weed control at 70 g/ha [1] of 45 to 59% and a pest or weed control at 140 g/ha [1] of 60 to 74%. The “GR50, KCHSC” value [1] was 80 g ai/ha, the “GR80, KCHSC” value [1] was >140 g ai/ha and the pest or weed control at 35 g/ha [2] was 0 to 29%. The pest or weed control at 70 g/ha [2] was 0 to 29%, the pest or weed control at 140 g/ha [2] was 45 to 59% and the “GR50, ALOMY” value [2] was 140 g ai/ha. The “GR80, ALOMY” value [2] was >140 g ai/ha, the pest or weed control at 35 g/ha [3] was 0 to 29% and the pest or weed control at 70 g/ha [3] was 0 to 29%. The pest or weed control at 140 g/ha [3] was 60 to 74%, the “GR50, APESV” value [3] was 130 g ai/ha and the “GR80, APESV” value [3] was >140 g ai/ha. The pest or weed control at 35 g/ha [4] was 60 to 74%, the pest or weed control at 70 g/ha [4] was 60 to 74% and the pest or weed control at 140 g/ha [4] was 85 to 94%. For the same compound, the “GR20, HORSS” value [4] was 15 g ai/ha, the pest or weed control at 35 g/ha [5] was 75 to 84% and the pest or weed control at 70 g/ha [5] was 85 to 94%. For the same compound, the pest or weed control at 140 g/ha [5] was 95 to 100% and the “GR20, TRZSS” value [5] was 8 g ai/ha.
